Data on 13 compounds can be found in patent US9546150B2, “Substituted quinazolin-4-ones for inhibiting ubiquitin specific protease 7” (HYBRIGENICS SA, priority 2011, dated 2017).

For test [1], the system named is HCT116 colon cancer cells. As to the kind of experiment: HCT116 cell viability and proliferation assay (MTS). It is filed as cell-based. The conditions noted are these: Homo sapiens, HCT-116, HCT116, 72 hours, read-out: Cell viability (MTS): HCT116 GI50 Day 3. The method, then:
HCT116 colon cancer cells were obtained from ATCC (American Type Culture Collection), and maintained in Mc Coy's 5A medium containing 10% FBS, 3 mM glutamine and 1% penicillin/streptomycin. Cells were incubated at 37° C. in a humidified atmosphere containing 5% CO2.
Cell viability was assayed using the MTS technique in 96-well culture plates (CellTiter 96® Aqueous Non-Radioactive Cell Proliferation Assay, Promega) according to the manufacturer's instructions. MTS (3-(4,5-dimethyl-thiazol-2-yl)-5-(3-carboxy-methoxyphenyl)-2-(4-sulfophenyl)-2H-tetra-zolium) is a MTT-derived tetrazolium that is reduced in metabolically active cells into a soluble, cell-permeant formazan. The amount of formazan, detected by its absorbance at 492 nm is proportional to the number of living, metabolically active cells.
10^3 HCT116 cells were seeded per well. 24 hours later, the medium was changed and the cells treated in triplicate with the concentrations of each compound from 100 μM to 50 nM. The compounds were diluted in 100% DMSO, whose final concentration on cells was kept at 0.5%.
Cells were incubated with the compounds for 72 hours, and their viability then assayed by the addition of MTS for 2 hours. Absorbance at 492 nm was measured directly from the 96-well culture plates. GI50 (Growth Inhibition 50) concentrations for each compound were calculated using a sigmoidal variable slope fit (Prism 4.0, Graphpad Softwares). Values represent mean of three independent experiments.

Another test concerns the target T1, USP8 (Homo sapiens, UniProt P40818).
T1 sequence (P40818 1-1118): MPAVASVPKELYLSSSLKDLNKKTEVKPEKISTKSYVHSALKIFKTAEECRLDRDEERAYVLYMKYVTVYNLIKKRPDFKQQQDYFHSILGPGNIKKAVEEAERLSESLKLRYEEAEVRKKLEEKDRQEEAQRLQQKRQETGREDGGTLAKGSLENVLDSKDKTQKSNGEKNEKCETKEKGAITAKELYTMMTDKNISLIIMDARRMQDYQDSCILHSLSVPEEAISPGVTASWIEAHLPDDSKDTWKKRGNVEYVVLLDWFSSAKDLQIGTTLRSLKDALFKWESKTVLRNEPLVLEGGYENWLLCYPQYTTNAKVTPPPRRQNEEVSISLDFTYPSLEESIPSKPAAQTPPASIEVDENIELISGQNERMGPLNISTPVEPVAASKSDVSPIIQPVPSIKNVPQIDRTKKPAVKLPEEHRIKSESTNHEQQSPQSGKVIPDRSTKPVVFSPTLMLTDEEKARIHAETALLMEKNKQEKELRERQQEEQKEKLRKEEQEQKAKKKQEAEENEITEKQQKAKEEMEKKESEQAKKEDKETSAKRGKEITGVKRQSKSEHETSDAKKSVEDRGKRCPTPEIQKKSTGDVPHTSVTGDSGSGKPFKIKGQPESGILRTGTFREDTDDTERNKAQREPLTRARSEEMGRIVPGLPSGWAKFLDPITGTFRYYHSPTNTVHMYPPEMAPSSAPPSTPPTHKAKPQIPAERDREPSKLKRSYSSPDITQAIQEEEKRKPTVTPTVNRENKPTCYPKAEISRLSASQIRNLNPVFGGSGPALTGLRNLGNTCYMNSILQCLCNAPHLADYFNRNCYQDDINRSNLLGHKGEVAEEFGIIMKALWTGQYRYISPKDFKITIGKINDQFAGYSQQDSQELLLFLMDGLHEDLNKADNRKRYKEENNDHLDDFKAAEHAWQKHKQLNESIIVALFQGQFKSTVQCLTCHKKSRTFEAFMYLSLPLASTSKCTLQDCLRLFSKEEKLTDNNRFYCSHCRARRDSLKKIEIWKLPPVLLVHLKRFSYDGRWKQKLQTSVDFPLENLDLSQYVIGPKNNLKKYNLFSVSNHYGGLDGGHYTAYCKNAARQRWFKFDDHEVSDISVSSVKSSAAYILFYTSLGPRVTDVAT
The test can be described thus: GST-Ub52-Flag HTRF deubiquitinating enzyme assay, USP8. For orientation: In TR-FRET formats the signal depends on donor and acceptor labels being close together.

The next test has as its target T2, UCH-L3 (Homo sapiens, UniProt P15374).
T2 sequence (P15374 1-230): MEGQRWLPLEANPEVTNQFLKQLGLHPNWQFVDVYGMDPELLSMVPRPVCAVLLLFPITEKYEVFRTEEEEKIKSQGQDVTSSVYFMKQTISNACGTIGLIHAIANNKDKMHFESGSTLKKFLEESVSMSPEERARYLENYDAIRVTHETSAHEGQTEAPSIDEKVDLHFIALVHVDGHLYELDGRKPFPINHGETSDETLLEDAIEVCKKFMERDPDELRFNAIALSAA
The test can be described thus: HAUbVS competition assay in HEK293 cell lysates, UCH-L3. It is filed as biochemical. The conditions noted are these: 12.5-200 μM.

Another test addresses USP7 (Homo sapiens, UniProt Q93009). As to the kind of experiment: Direct binding to USP7 by ESI-MS. The settings on record: 50/50/1 H2O/CH3CN/HCOOH, Vc=120 V, Pi=4 mbar.

A value given as a limit tells only on which side of the number the result lay.

Sequence of USP7 (Q93009 whole entry): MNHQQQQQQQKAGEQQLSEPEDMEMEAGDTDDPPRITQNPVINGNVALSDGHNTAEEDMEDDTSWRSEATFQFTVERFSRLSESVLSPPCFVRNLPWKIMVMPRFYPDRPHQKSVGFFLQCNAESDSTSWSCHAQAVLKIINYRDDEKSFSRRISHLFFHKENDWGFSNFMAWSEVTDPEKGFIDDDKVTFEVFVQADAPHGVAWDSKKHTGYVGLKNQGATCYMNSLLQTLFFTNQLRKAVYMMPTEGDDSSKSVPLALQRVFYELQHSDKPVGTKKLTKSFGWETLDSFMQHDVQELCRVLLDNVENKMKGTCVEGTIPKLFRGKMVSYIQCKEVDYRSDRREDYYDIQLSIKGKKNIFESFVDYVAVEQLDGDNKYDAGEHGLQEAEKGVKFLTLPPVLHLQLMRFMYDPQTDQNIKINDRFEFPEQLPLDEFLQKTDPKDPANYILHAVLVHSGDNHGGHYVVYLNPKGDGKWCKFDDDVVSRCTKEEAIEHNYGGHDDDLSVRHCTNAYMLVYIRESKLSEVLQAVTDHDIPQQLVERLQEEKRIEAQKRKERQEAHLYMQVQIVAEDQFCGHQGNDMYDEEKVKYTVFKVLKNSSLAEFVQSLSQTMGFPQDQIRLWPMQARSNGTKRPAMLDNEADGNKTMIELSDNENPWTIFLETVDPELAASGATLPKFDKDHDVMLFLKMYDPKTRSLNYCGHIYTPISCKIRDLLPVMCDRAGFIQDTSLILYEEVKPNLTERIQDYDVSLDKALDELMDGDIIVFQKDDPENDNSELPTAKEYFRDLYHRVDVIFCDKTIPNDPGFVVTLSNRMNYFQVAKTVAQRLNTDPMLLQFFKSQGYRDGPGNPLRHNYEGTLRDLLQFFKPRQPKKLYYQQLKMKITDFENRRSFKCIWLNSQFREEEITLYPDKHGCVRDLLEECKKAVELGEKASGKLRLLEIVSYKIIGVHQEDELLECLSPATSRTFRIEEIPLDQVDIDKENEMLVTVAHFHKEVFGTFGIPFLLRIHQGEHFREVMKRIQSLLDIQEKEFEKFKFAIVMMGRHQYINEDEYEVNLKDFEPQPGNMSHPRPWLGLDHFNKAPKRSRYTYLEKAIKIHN
Source text for USP8: The cDNA encoding USP8 was obtained by PCR amplification from placenta mRNA. USP8 cDNA was subcloned by PCR into a baculovirus expression vector (pFastBac-HT; Invitrogen). A cDNA encoding a mutated USP8 was generated by mutagenic PCR. […] The sequences were ascertained by sequencing of the entire open reading frame. Bacmids encoding USP8 were generated following DH10bac transposition. The corresponding bacmids were transfected into insect cells (Sf9). Viruses were recovered from culture supernatant and amplified twice. Insect cells (Sf9 or High Five; Invitrogen) were infected for 72 hours. […] Proteins were affinity purified on metal affinity resins (Talon Metal affinity resin; BD Biosciences). Bound materials were extensively washed in wash buffer (50 mM Sodium Phosphate pH 7.0; 300 mM NaCl; 10 mM imidazole; 0.5% Triton X-100; 10% glycerol) and eluted from the resin in 250 mM imidazole-containing wash buffer. Proteins were dialyzed in dialysis buffer (Tris HCl pH 7.6 20 mM; NaCl 200 mM; DTT 1 mM; EDTA 1 mM; 10% Glycerol).
A cDNA encoding the fusion protein between ubiquitin and the ribosomal protein L40 (ub52 or uba52 or ubiquitin-L40) was amplified from human RNA using a proprietary human placenta library. The cDNA was subcloned into a bacterial expression vector (pGEX-2T, GE Healthcare), including an additional flag tag at the carboxyl end of the encoded protein.
For production and purification of recombinant proteins, the plasmid pGEX-2T-Ub52-flag was transformed into E. coli BL21 (Stratagene), grown in LB medium supplemented with 100 mg/ml ampicillin (LB ampi) at 37° C. overnight and then diluted 1/100 in LB ampi. The cells were incubated at 37° C. until an A600=0.6-0.8 was reached. After induction with 0.1 mM isopropyl-β-D-thiogalactopyranoside (IPTG), the culture was incubated at 30° C. for 180 min.
Cells were harvested by centrifugation for 15 min at 7000×g at 4° C. Bacterial pellets were lysed in NETN (Tris HCl pH 8.0; EDTA 1 mM; NP40 0.5%; protease inhibitor cocktail, PMSF 1 mM) and briefly sonicated. Insoluble material was removed by centrifugation 30 min at 14000×g. […] Briefly, soluble fraction was incubated on Glutathione beads pre-equilibrated in NETN buffer+0.5% Milk for 120 min at 4° C. Flow Through was recovered. Beads were extensively washed: the last wash was performed in Tris HCl pH 7.6 20 mM; NaCl 100 mM; MgCl2 12 mM. Elutions were performed using 20 mM Reduced Glutathione in 50 mM Tris HCl pH 8.0, NaCl 120 mM. […] Elutions were dialysed over night at 4° C. in Tris HCl pH 7.6 20 mM; NaCl 50 mM; DTT 0.5 mM.
The use of GST-Ub52-Flag is based on the time-resolved measurement of fluorescence emitted by transfer in homogenous medium.
The assay is carried out on multiwell assay plates. The plates are analyzed on a PHERAstar fluorimeter (BMG) after an overnight incubation at 4° C.
The enzyme reaction is carried out by mixing GST-Ub52-flag solution with 5 μl of USP7 solution (200 pM final) or 5 μl of USP8 (400 pM final). This mixture is incubated for one hour at room temperature on a multiwell assay plate. […] The plate is read after an overnight incubation at 4° C. on a PHERAstar fluorimeter (BMG).
The decrease in the signal correlates with the increase in enzyme activity i.e. the cleavage of GST-Ub52-Flag substrate.
Data (mean values+/−standard deviation) were analyzed as % of control (no compound) and plotted as percentage versus the Log of the compound concentration using GraphPad (Prism).

Turning to `CC(Cc1cccs1)C(=O)N1CCC(O)(Cn2cnc3cc(Cl)ccc3c2=O)CC1` (stereo not shown) [Example 11, 7-chloro-3-({4-hydroxy-1-[2-methyl-3-(thiophen-2-yl)propanoyl]piperidin-4-yl}methyl)-3,4-dihydroquinazolin-4-one], the GI50 – broadly, the concentration giving 50% growth inhibition – in test [1] was determined as 25 µM. Moreover, the IC50 (as a rule, the concentration needed to halve the response being measured) at USP8 was over 200 µM.
As for `CCC(CC)C(=O)N1CCC(O)(Cn2cnc3cc(Cl)ccc3c2=O)CC1` [Example 9, 7-chloro-3-{[1-(2-ethylbutanoyl)-4-hydroxypiperidin-4-yl]methyl}-3,4-dihydroquinazolin-4-one], at USP8, the IC50 is over 200 µM.
For `O=C(CCc1cccs1)N1CCC(O)(Cn2cnc3ccccc3c2=O)CC1` [Example 12, 3-({4-hydroxy-1-[3-(thiophen-2-yl)propanoyl]piperidin-4-yl}methyl)-3,4-dihydroquinazolin-4-one], in test [1], the concentration for 50% growth inhibition (GI50) was found to be 253 µM. This compound yielded an IC50 on USP8 of over 200 µM.
In the same order, the values of `COc1cc2ncn(CC3(O)CCN(C(=O)C(C)C)CC3)c(=O)c2cc1OC` [Example 7, 3-{[4-hydroxy-1-(2-methylpropanoyl)piperidin-4-yl]methyl}-6,7-dimethoxy-3,4-dihydroquinazolin-4-one] are over 500 µM and over 200 µM.
For the compound `O=C(CCc1ccccc1)N1CCC(O)(Cn2cnc3cc(Cl)ccc3c2=O)CC1` [Example 2, 7-chloro-3-{[4-hydroxy-1-(3-phenylpropanoyl)piperidin-4-yl]methyl}-3,4-dihydroquinazolin-4-one], the GI50 in test [1] was found to be 67 µM. Besides, on UCH-L3, the “blocking of HAUbVS labeling of UCH-L3” value is listed as “without any cross-reaction”. Further, the “binding to USP7 under dissociating conditions” value (from here on “binding to USP7”) at USP7 is given as “no binding was observed”.
As to `O=C(CCC1CCCC1)N1CCC(O)(Cn2cnc3cc(Cl)ccc3c2=O)CC1` [Example 4, 7-chloro-3-{[1-(3-cyclopentylpropanoyl)-4-hydroxypiperidin-4-yl]methyl}-3,4-dihydroquinazolin-4-one], the GI50 in test [1] is 19 µM. At USP8, this compound showed an IC50 of over 200 µM.
On to `CC(Cc1ccccc1)C(=O)N1CCC(O)(Cn2cnc3cc(Cl)ccc3c2=O)CC1` (stereo not shown) [Example 14, 3-{[1-(2-benzylpropanoyl)-4-hydroxypiperidin-4-yl]methyl}-7-chloro-3,4-dihydroquinazolin-4-one], for which the GI50 in test [1] was determined as 28 µM. This compound also returned an IC50 against USP8 of over 200 µM.
At USP8, `CC(C)C(=O)N1CCC(O)(Cn2cnc3ccccc3c2=O)CC1` [Example 6, 3-{[4-hydroxy-1-(2-methylpropanoyl)piperidin-4-yl]methyl}-3,4-dihydroquinazolin-4-one] registered an IC50 of over 200 µM.
On to `O=C(CCc1ccccc1)N1CCC(O)(Cn2cnc3ccccc3c2=O)CC1` [Example 1, 3-{[4-hydroxy-1-(3-phenylpropanoyl)piperidin-4-yl]methyl}-3,4-dihydroquinazolin-4-one], for which the GI50 in test [1] is over 500 µM. Besides, at USP7, the “binding to USP7” value is listed as “no binding was observed”. At USP8, this compound displayed an IC50 of over 200 µM.
In the case of `CC(Cc1ccccc1)C(=O)N1CCC(O)(Cn2cnc3ccccc3c2=O)CC1` (stereo not shown) [Example 13, 3-{[1-(2-benzylpropanoyl)-4-hydroxypiperidin-4-yl]methyl}-3,4-dihydroquinazolin-4-one], the GI50 in test [1] was 103 µM. Further, the IC50 against USP8 was over 200 µM.
For `CC(Cc1cccs1)C(=O)N1CCC(O)(Cn2cnc3ccccc3c2=O)CC1` (stereo not shown) [Example 5, 3-({4-hydroxy-1-[2-methyl-3-(thiophen-2-yl)propanoyl]piperidin-4-yl}methyl)-3,4-dihydroquinazolin-4-one], the GI50 in test [1] was determined as 113 µM. In addition, at UCH-L3, the “blocking of HAUbVS labeling of UCH-L3” value is reported as “without any cross-reaction”. At USP7, the “binding to USP7” value is recorded as “no binding was observed”. On USP8, the IC50 was over 200 µM.
With `O=C(CCC1CCCC1)N1CCC(O)(Cn2cnc3ccccc3c2=O)CC1` [Example 3, 3-{[1-(3-cyclopentylpropanoyl)-4-hydroxypiperidin-4-yl]methyl}-3,4-dihydroquinazolin-4-one], in test [1], the GI50 is 93 µM. Moreover, the “binding to USP7” value at USP7 is “no binding was observed”. On USP8, the 50% inhibitory concentration (IC50) is over 200 µM.
`COc1ccccc1CCC(=O)N1CCC(O)(Cn2cnc3ccccc3c2=O)CC1` [Example 10, 3-({4-hydroxy-1-[3-(2-methoxyphenyl)propanoyl]piperidin-4-yl}methyl)-3,4-dihydroquinazolin-4-one] gave an IC50 at USP8 of over 200 µM.
